Measurements from US11911386B2, “Methods of treating B-cell proliferative disorder” (BeiGene Switzerland GmbH, priority 2022, dated 2024).
Read-outs that look alike come from different tables or passages of the source.

[1] = any grade, listed as Zanubrutinib
[2] = grade ≥3, listed as Zanubrutinib
[3] = leading to treatment discontinuation

Compound: C=CC(=O)N1CCC([C@@H]2CCNc3c(C(N)=O)c(-c4ccc(Oc5ccccc5)cc4)nn32)CC1 [zanubrutinib, (S)-7-(1-acryloylpiperidin-4-yl)-2-(4-phenoxyphenyl)-4,5,6,7-tetrahydropyrazolo[1,5-a]pyrimidine-3-carboxamide]
- Treatment discontinuation due to adverse events (ITT): 16.2%
- Anemia AESI (any grade): 50 (15.4) n (%)
- Anemia TEAE (any grade): 49 (15.1) n (%)
- Arthralgia TEAE (any grade): 47 (14.5) n (%)
- Atrial fibrillation TEAE (any grade): 15 (4.6) n (%)
- Atrial fibrillation and flutter AESI (any grade): 5.2 n (%)
- COVID-19 TEAE (any grade): 23.1 n (%)
- Contusion TEAE (any grade): 44 (13.6) n (%)
- Cough TEAE (any grade): 38 (11.7) n (%)
- Diarrhea TEAE (any grade): 16.0 n (%)
- Fatigue TEAE (any grade): 31 (9.6) n (%)
- Hemorrhage AESI (any grade): 137 (42.3) n (%)
- Hypertension AESI (any grade): 23.5 n (%)
- Hypertension TEAE (any grade): 21.9 n (%)
- Infections AESI (any grade): 71.3 n (%)
- Major hemorrhage AESI (any grade): 12 (3.7) n (%)
- Muscle spasms TEAE (any grade): 10 (3.1) n (%)
- Neutropenia AESI (any grade): 29.3 n (%)
- Neutropenia TEAE (any grade): 22.8 n (%)
- Opportunistic infection AESI (any grade): 7 (2.2%) n (%)
- Pneumonia TEAE (any grade): 34 (10.5) n (%)
- Pyrexia TEAE (any grade): 27 (8.3) n (%)
- Rash TEAE (any grade): 33 (10.2) n (%)
- Secondary primary malignancies AESI (any grade): 40 (12.3) n (%)
- Skin cancers AESI (any grade): 21 (6.5) n (%)
- Thrombocytopenia AESI (any grade): 42 (13.0) n (%)
- Tumor lysis syndrome AESI (any grade): 1 (0.3) n (%)
- Upper respiratory tract infection TEAE (any grade): 21.0 n (%)
- ≥1 AESI (any grade): 294 (90.7) n (%)
- ≥1 TEAE (any grade): 318 (98.1) n (%)
- Atrial fibrillation and flutter AESI [1]: 17 (5.2) n (%)
- COVID-19 TEAE [1]: 75 (23.1) n (%)
- Diarrhea TEAE [1]: 52 (16.0) n (%)
- Hypertension AESI [1]: 76 (23.5) n (%)
- Hypertension TEAE [1]: 71 (21.9) n (%)
- Infections AESI [1]: 231 (71.3) n (%)
- Neutropenia AESI [1]: 95 (29.3) n (%)
- Neutropenia TEAE [1]: 74 (22.8) n (%)
- Opportunistic infection AESI [1]: 7 (2.2) n (%)
- Upper respiratory tract infection TEAE [1]: 68 (21.0) n (%)
- Acute coronary syndrome (cardiac AE): 1 (0.3)
- Acute myocardial infarction (cardiac AE): 1 (0.3)
- Angina pectoris (cardiac AE): 4 (1.2)
- Aortic valve incompetence (cardiac AE): 0
- Aortic valve stenosis (cardiac AE): 1 (0.3)
- Arrhythmia (cardiac AE): 1 (0.3)
- Arrhythmia supraventricular (cardiac AE): 3 (0.9)
- Arteriosclerosis coronary artery (cardiac AE): 1 (0.3)
- Atrial fibrillation (cardiac AE): 15 (4.6)
- Atrial flutter (cardiac AE): 2 (0.6)
- Atrial tachycardia (cardiac AE): 0
- Atrioventricular block (cardiac AE): 0
- Atrioventricular block first degree (cardiac AE): 5 (1.5)
- Bradyarrhythmia (cardiac AE): 1 (0.3)
- Bradycardia (cardiac AE): 0
- Bundle branch block left (cardiac AE): 3 (0.9)
- Bundle branch block right (cardiac AE): 2 (0.6)
- Cardiac arrest (cardiac AE): 0
- Cardiac discomfort (cardiac AE): 0
- Cardiac disorder (cardiac AE): 0
- Cardiac failure (cardiac AE): 5 (1.5)
- Cardiac failure acute (cardiac AE): 0
- Cardiac failure chronic (cardiac AE): 0
- Cardiac failure congestive (cardiac AE): 1 (0.3)
- Congestive cardiomyopathy (cardiac AE): 0
- Coronary artery disease (cardiac AE): 2 (0.6)
- Coronary artery insufficiency (cardiac AE): 1 (0.3)
- Defect conduction intraventricular (cardiac AE): 1 (0.3)
- Dilatation atrial (cardiac AE): 1 (0.3)
- Extrasystoles (cardiac AE): 1 (0.3)
- Left atrial hypertrophy (cardiac AE): 1 (0.3)
- Left ventricular dysfunction (cardiac AE): 1 (0.3)
- Left ventricular failure (cardiac AE): 1 (0.3)
- Mitral valve incompetence (cardiac AE): 1 (0.3)
- Myocardial fibrosis (cardiac AE): 1 (0.3)
- Myocardial infarction (cardiac AE): 1 (0.3)
- Myocardial ischemia (cardiac AE): 3 (0.9)
- Palpitations (cardiac AE): 9 (2.8)
- Pericardial effusion (cardiac AE): 1 (0.3)
- Sinoatrial block (cardiac AE): 1 (0.3)
- Sinus arrhythmia (cardiac AE): 1 (0.3)
- Sinus bradycardia (cardiac AE): 5 (1.5)
- Sinus node dysfunction (cardiac AE): 0
- Sinus tachycardia (cardiac AE): 4 (1.2)
- Supraventricular extrasystoles (cardiac AE): 4 (1.2)
- Supraventricular tachycardia (cardiac AE): 2 (0.6)
- Tachycardia (cardiac AE): 1 (0.3)
- Ventricular arrhythmia (cardiac AE): 2 (0.6)
- Ventricular extrasystoles (cardiac AE): 3 (0.9)
- Ventricular fibrillation (cardiac AE): 0
- Ventricular hypokinesia (cardiac AE): 1 (0.3)
- Anemia AESI (grade ≥3): 7 (2.2) n (%)
- Atrial fibrillation and flutter AESI (grade ≥3): 2.5 n (%)
- Hemorrhage AESI (grade ≥3): 11 (3.4) n (%)
- Hypertension AESI (grade ≥3): 15.1 n (%)
- Infections AESI (grade ≥3): 26.5 n (%)
- Major hemorrhage AESI (grade ≥3): 11 (3.4) n (%)
- Neutropenia AESI (grade ≥3): 68 (21.0) n (%)
- Opportunistic infection AESI (grade ≥3): 5 (1.5) n (%)
- Secondary primary malignancies AESI (grade ≥3): 22 (6.8) n (%)
- Skin cancers AESI (grade ≥3): 7 (2.2) n (%)
- Thrombocytopenia AESI (grade ≥3): 11 (3.4) n (%)
- Tumor lysis syndrome AESI (grade ≥3): 1 (0.3) n (%)
- ≥1 AESI (grade ≥3): 186 (57.4) n (%)
- Atrial fibrillation and flutter AESI [2]: 8 (2.5) n (%)
- Hypertension AESI [2]: 49 (15.1) n (%)
- Infections AESI [2]: 86 (26.5) n (%)
- Anemia (grade ≥3 TEAE): 7 (2.2)
- Atrial fibrillation (grade ≥3 TEAE): 6 (1.9)
- Blood pressure increased (grade ≥3 TEAE): 4 (1.2)
- COVID-19 (grade ≥3 TEAE): 22 (6.8)
- COVID-19 pneumonia (grade ≥3 TEAE): 23 (7.1)
- Neutrophil count decreased (grade ≥3 TEAE): 17 (5.2)
- Pneumonia (grade ≥3 TEAE): 19 (5.9)
- Syncope (grade ≥3 TEAE): 9 (2.8)
- Thrombocytopenia (grade ≥3 TEAE): 9 (2.8)
- AEs leading to dose reduction (human, in vivo): 40 (12.3)
- Bronchopulmonary aspergillosis (human, in vivo): 2 (0.6)
- COVID-19 TEAE Grade 3 or higher (human, in vivo): 40 (12.3) n (%)
- Fungal abscess central nervous system (human, in vivo): 1 (0.3)
- Herpes ophthalmic (human, in vivo): 0
- Ophthalmic herpes zoster (human, in vivo): 0
- Osteomyelitis fungal (human, in vivo): 0
- Pneumonia fungal (human, in vivo): 2 (0.6)
- Pneumonia legionella (human, in vivo): 0
- Pulmonary tuberculosis (human, in vivo): 0
- AEs leading to dose interruption (in vivo): 162 (50.0)
- AEs leading to treatment discontinuation (in vivo): 50 (15.4)
- Deaths due to cardiac events (in vivo): no patient receiving zanubrutinib died due to a cardiac disorder AE
- Grade ≥3 TEAE (in vivo): 218 (67.3)
- Serious AEs (in vivo): 136 (42.0)
- Atrial fibrillation [3]: 0
- Cardiac arrest [3]: 0
- Cardiac failure [3]: 0
- Cardiac failure acute [3]: 0
- Congestive cardiomyopathy [3]: 0
- Myocardial infarction [3]: 0
- Palpitations [3]: 0
- Ventricular extrasystoles [3]: 1 (0.3)
- Ventricular fibrillation [3]: 0
- Pneumocystis jirovecii pneumonia (opportunistic infection AESI): 1 (0.3)
- Pneumonia cryptococcal (opportunistic infection AESI): 1 (0.3)
